ChEMBL document CHEMBL1201862, “PubChem BioAssay data set” (2004)
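Interpolation was linear, between the two tested concentrations surrounding the appropriate level; five concentrations were tested over 48 hours in 96-well plates. GI50 is the concentration that inhibits growth by half.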 Calls of active or inactive are those of the source. No stated cut-off is given here; in the data, active = GI50 up to about 1.1 µM and inactive = higher.

What was measured:
Assay in all cases: NCI anticancer screen, dose series, 48 h
SNB-75 = tested on: SNB-75
A498 = tested on: A498
UACC-257 = tested on: UACC-257
HOP-62 = tested on: HOP-62
NCI-H226 = tested on: NCI-H226
EKVX = tested on: EKVX
SF-268 = tested on: SF-268
UO-31 = tested on: UO-31
IGROV-1 = tested on: IGROV-1
SK-MEL-5 = tested on: SK-MEL-5
HT-29 = tested on: HT-29
NCI-H522 = tested on: NCI-H522
SR = tested on: SR
OVCAR-5 = tested on: OVCAR-5
HOP-92 = tested on: HOP-92
RPMI-8226 = tested on: RPMI-8226

Measured: GI50

CC(=O)Nc1ccc(C2CC(c3ccc([N+](=O)[O-])cc3)=Nc3ccccc3S2)cc1 (stereo not drawn)
inactive: SNB-75 12.8 µM | A498 16.5 µM | UACC-257 15.7 µM | HOP-62 17.1 µM | NCI-H226 26.9 µM | EKVX 36.8 µM | SF-268 24 µM | UO-31 13.8 µM | IGROV-1 25.8 µM | SK-MEL-5 > 10 µM | HT-29 15.4 µM | NCI-H522 > 10 µM | SR 12.9 µM | OVCAR-5 22.2 µM

CCC1(N=[N+]=[N-])C(=O)c2ccccc2N(c2ccccc2)C1=O (stereo not drawn)
inactive: SNB-75 > 100 µM | A498 > 100 µM | UACC-257 > 100 µM | HOP-62 > 100 µM | EKVX > 100 µM | SF-268 > 100 µM | UO-31 > 100 µM | IGROV-1 > 100 µM | SK-MEL-5 > 100 µM | HOP-92 > 100 µM | HT-29 > 100 µM | NCI-H522 > 100 µM | SR > 100 µM | OVCAR-5 > 100 µM

COC(=O)C1(C(=O)OC)CC2c3c(c4ccccc4n3C)CC(C1=O)N2Cc1ccccc1 (stereo not drawn)
inactive: SNB-75 15.4 µM | A498 > 100 µM | UACC-257 > 100 µM | HOP-62 > 100 µM | NCI-H226 > 100 µM | EKVX > 100 µM | SF-268 > 100 µM | UO-31 > 100 µM | IGROV-1 > 100 µM | SK-MEL-5 > 100 µM | HOP-92 > 100 µM | HT-29 > 100 µM | RPMI-8226 61.1 µM | NCI-H522 57.3 µM | OVCAR-5 > 100 µM

CCCCCCCCC(C)CCCCCCCCC(=O)OCC(COP(=O)([O-])OCC[N+](C)(C)C)OC(=O)CCCCCCCCC(C)CCCCCCCC (stereo not drawn)
inactive: SNB-75 > 100 µM | A498 > 100 µM | UACC-257 > 100 µM | HOP-62 > 100 µM | NCI-H226 > 100 µM | EKVX > 100 µM | SF-268 > 100 µM | UO-31 > 100 µM | IGROV-1 > 100 µM | SK-MEL-5 > 100 µM | HOP-92 > 100 µM | HT-29 > 100 µM | RPMI-8226 > 100 µM | NCI-H522 > 100 µM | SR > 100 µM | OVCAR-5 > 100 µM

Cc1ccc2[nH]c(=O)c(C(C#N)c3ccccc3)nc2c1 (stereo not drawn)
inactive: SNB-75 30.5 µM | A498 > 100 µM | UACC-257 59.8 µM | HOP-62 > 100 µM | NCI-H226 30.1 µM | EKVX 30.5 µM | SF-268 32.6 µM | UO-31 27.9 µM | IGROV-1 34.2 µM | SK-MEL-5 19 µM | HOP-92 32.7 µM | HT-29 32.8 µM | RPMI-8226 15.6 µM | NCI-H522 32.7 µM | SR 71.3 µM | OVCAR-5 55.3 µM

Cc1[nH]c2ccccc2c1C1Cc2ccccc2N1C(=O)/C=C/C(=O)O (stereo not drawn)
inactive: SNB-75 > 100 µM | A498 > 100 µM | UACC-257 > 100 µM | HOP-62 > 100 µM | NCI-H226 > 100 µM | EKVX > 100 µM | SF-268 > 100 µM | UO-31 > 100 µM | IGROV-1 > 100 µM | SK-MEL-5 > 100 µM | HT-29 > 100 µM | NCI-H522 > 100 µM | SR > 100 µM | OVCAR-5 > 100 µM

O=C(CSc1nnc(-c2ccc(/N=C\c3ccc(Cl)cc3)cc2)o1)Nc1cccc(Cl)c1
inactive: SNB-75 > 100 µM | UACC-257 > 100 µM | HOP-62 > 100 µM | NCI-H226 > 100 µM | EKVX > 100 µM | SF-268 > 100 µM | UO-31 > 100 µM | SK-MEL-5 > 100 µM | HT-29 > 100 µM | RPMI-8226 70 µM | NCI-H522 36.1 µM | SR > 100 µM

S=C(Nc1ccccc1)N(/N=C/C=C/c1ccccc1)c1nnc(-c2ccccc2)c(-c2ccccc2)n1
inactive: SNB-75 > 100 µM | A498 67.5 µM | UACC-257 38.9 µM | HOP-62 78.2 µM | NCI-H226 24.3 µM | EKVX 45.4 µM | SF-268 30.5 µM | UO-31 24.7 µM | IGROV-1 > 100 µM | SK-MEL-5 30.8 µM | HOP-92 18.7 µM | HT-29 99.1 µM | RPMI-8226 26.1 µM | NCI-H522 27.2 µM | OVCAR-5 > 100 µM

Cn1nc(-c2ccccc2)c(C(=O)/C=C/c2ccccc2)c(N2CCOCC2)c1=O
inactive: A498 15.4 µM | HOP-62 37.2 µM | EKVX > 10 µM | SF-268 16.9 µM | UO-31 14.9 µM | IGROV-1 23.4 µM | SK-MEL-5 16 µM | HOP-92 5.06 µM | HT-29 17.7 µM | RPMI-8226 14.6 µM | NCI-H522 12.9 µM

CCOC(=O)NC(=O)c1cn(CCN2CCN(C(=O)NCCCCCCNC(=O)N3CCN(CCn4cc(C(=O)NC(=O)OCC)c(=O)n(CCN(CC)CC)c4=O)CC3)CC2)c(=O)n(CCC(CC)CC)c1=O
inactive: SNB-75 > 100 µM | A498 > 100 µM | UACC-257 > 100 µM | HOP-62 > 100 µM | EKVX > 100 µM | SF-268 > 100 µM | UO-31 > 100 µM | IGROV-1 > 100 µM | SK-MEL-5 > 100 µM | HOP-92 > 100 µM | HT-29 > 100 µM | RPMI-8226 > 100 µM | NCI-H522 > 100 µM | SR > 100 µM | OVCAR-5 > 100 µM

O=[N+]([O-])c1cc(Cl)ccc1OCc1ccccc1
inactive: SNB-75 20.6 µM | A498 > 100 µM | UACC-257 45.3 µM | HOP-62 52 µM | EKVX 27.2 µM | SF-268 > 100 µM | IGROV-1 > 100 µM | SK-MEL-5 27.3 µM | HOP-92 34 µM | HT-29 29.6 µM | RPMI-8226 67 µM | SR 26.4 µM

O=c1c2cc(-c3ccccc3)sc2nc2sc(-c3ccccc3)nn12
inactive: SNB-75 > 100 µM | A498 > 100 µM | UACC-257 > 100 µM | HOP-62 85.3 µM | NCI-H226 > 100 µM | EKVX > 100 µM | SF-268 > 100 µM | UO-31 > 100 µM | IGROV-1 > 100 µM | SK-MEL-5 > 100 µM | HOP-92 > 100 µM | HT-29 > 100 µM | RPMI-8226 > 100 µM | NCI-H522 > 100 µM | SR > 100 µM | OVCAR-5 > 100 µM

CC(=O)c1cccc(NC(=O)C(=O)C(C2OC(=O)c3ccccc32)[N+](=O)[O-])c1 (stereo not drawn)
inactive: SNB-75 > 100 µM | A498 > 100 µM | UACC-257 > 100 µM | HOP-62 > 100 µM | NCI-H226 > 100 µM | EKVX > 100 µM | SF-268 > 100 µM | UO-31 60.1 µM | IGROV-1 > 100 µM | SK-MEL-5 > 100 µM | HOP-92 > 100 µM | HT-29 > 100 µM | RPMI-8226 > 100 µM | SR > 100 µM | OVCAR-5 > 100 µM

O=C(O)C(=O)/C=C\c1ccc(Cl)cc1
inactive: SNB-75 > 100 µM | A498 > 100 µM | UACC-257 > 100 µM | HOP-62 > 100 µM | NCI-H226 > 100 µM | EKVX > 100 µM | SF-268 > 100 µM | UO-31 > 100 µM | IGROV-1 > 100 µM | SK-MEL-5 > 100 µM | HOP-92 80.9 µM | HT-29 > 100 µM | RPMI-8226 > 100 µM | NCI-H522 > 100 µM | SR 51.6 µM | OVCAR-5 > 100 µM

OC1c2ccccc2C2C(O)c3ccccc3C12 (stereo not drawn)
inactive: SNB-75 89.5 µM | UACC-257 > 100 µM | HOP-62 > 100 µM | EKVX > 100 µM | SF-268 > 100 µM | UO-31 > 100 µM | IGROV-1 > 100 µM | SK-MEL-5 > 100 µM | HOP-92 > 100 µM | HT-29 > 100 µM | RPMI-8226 > 100 µM | NCI-H522 > 100 µM | OVCAR-5 > 100 µM

COc1cc(/C=N/N=C(\N)NO)c([N+](=O)[O-])cc1OC
inactive: SNB-75 27.5 µM | A498 37.7 µM | UACC-257 73.1 µM | HOP-62 52.7 µM | NCI-H226 14.7 µM | EKVX 18.1 µM | SF-268 25.2 µM | UO-31 35.7 µM | IGROV-1 53.2 µM | SK-MEL-5 18 µM | HOP-92 29.2 µM | HT-29 30.1 µM | RPMI-8226 73.8 µM | NCI-H522 13.3 µM | SR 29.2 µM | OVCAR-5 37.2 µM

N#Cc1c(N)oc2cc3c(C#N)c(N)oc3cc12
inactive: SNB-75 83.6 µM | UACC-257 > 100 µM | HOP-62 > 100 µM | EKVX > 100 µM | SF-268 > 100 µM | UO-31 > 100 µM | IGROV-1 > 100 µM | SK-MEL-5 > 100 µM | HOP-92 > 100 µM | HT-29 > 100 µM | RPMI-8226 > 100 µM | NCI-H522 > 100 µM | OVCAR-5 > 100 µM

O=C1C2C3C=C4c5ccccc5N(c5ccccc5)C4(C2C(=O)N1c1ccc([N+](=O)[O-])cc1)[C@H]1C(=O)N(c2ccc([N+](=O)[O-])cc2)C(=O)[C@@H]31 (stereo partly drawn)
inactive: SNB-75 11.1 µM | A498 > 100 µM | UACC-257 > 100 µM | HOP-62 > 100 µM | NCI-H226 > 100 µM | EKVX > 100 µM | SF-268 > 100 µM | UO-31 > 100 µM | IGROV-1 > 100 µM | SK-MEL-5 > 100 µM | HOP-92 > 100 µM | HT-29 > 100 µM | RPMI-8226 > 100 µM | NCI-H522 > 100 µM | OVCAR-5 > 100 µM
